The test system of series [1] is DENV-R2A (Rluc-expressing DENV, serotype 2 strain 16681). The series is described as follows: microbe, parasite or virus in culture. Type of series: cell-based, Dengue virus. The settings on record: Dengue virus, Huh7.5, 48 h, read-out: DENV-R2A replication (fold DMSO) Mean, deconvolution screen, singletons, 50 µM, Huh7.5, 2 days postinfection.
The subject of series [2] is ZIKV-R2A (strain FSS13025). The experiment in a line: microbe, parasite or virus in culture. The settings on record: Zika virus, Huh7.5, 48 h, read-out: ZIKV-R2A replication (fold DMSO) Mean. The series is classed as cell-based.
Series [3] deals with Huh7.5 cells. The experiment in a line: Cell viability, CellTiter-Glo luminescent assay. The settings on record: deconvolution screen, singletons, 50 µM, uninfected Huh7.5.

Take `Clc1ncc(CN2CCCCC2)s1` [Compound 8N-010, Clc1ncc(CN2CCCCC2)s1]: the activity at 50 µM came out at 101% in series [1] and 111% in series [2]. Also, the “Cell viability (fold DMSO) Mean” value in series [3] came to 0.95 fold DMSO.
Taken in the same sequence, the figures for `O=C(C1CCNCC1)N1CCCC1` [PS-4906, O=C(C1CCNCC1)N2CCCC2] were 97%, 117% and 0.90 fold DMSO.
Taken in the same sequence, the figures for `COc1cc(F)c(C#N)c(F)c1` [PS-6866, COc1cc(F)c(C#N)c(F)c1] were 97%, 115% and 1.01 fold DMSO.
Taken in the same sequence, the figures for `N#Cc1cccc(O)c1` [PS-5804, Oc1cccc(c1)C#N] were 102%, 115% and 1.16 fold DMSO.
In the case of `Cn1cncc1C(=O)O` [AS-5483, Cn1cncc1C(=O)O], the activity at 50 µM in series [1] and in series [2] was 99% each time. In addition, the “Cell viability (fold DMSO) Mean” value in series [3] is recorded as 1.12 fold DMSO.
As for `O=C(O)C(O)c1cc(F)cc(F)c1` (stereo not drawn) [PS-6482, OC(C(=O)O)c1cc(F)cc(F)c1], the figures for the activity at 50 µM in series [1] and in series [2] were 101% and 110%, respectively. Further, the “Cell viability (fold DMSO) Mean” value in series [3] was 1.08 fold DMSO.
Taken in the same sequence, the figures for `NC(=O)c1ccco1` [Compound 2B-052, NC(=O)c1occc1] were 98%, 112% and 1.17 fold DMSO.
On the same counts, the results for `O=C(c1ccccc1)C1(O)CCCCC1` [FS-3226, OC1(CCCCC1)C(=O)c2ccccc2] are 96%, 109% and 1.07 fold DMSO.
On the same counts, the results for `Cc1onc(-c2ccccc2)c1CN` [PS-4242, Cc1onc(c1CN)c2ccccc2] are 91%, 103% and 0.92 fold DMSO.
On to `Oc1ccc2ncccc2c1` [PS-3719, Oc1ccc2ncccc2c1], for which the activity at 50 µM in series [1] came to 93%; in series [2] it was 107%. Moreover, in series [3], the “Cell viability (fold DMSO) Mean” value was found to be 1.19 fold DMSO.
On the same counts, the results for `Cc1onc(-c2ccccc2)c1N` [PS-4715, Cc1onc(c1N)c2ccccc2] are 88%, 113% and 1.05 fold DMSO.
Turning to `O=C(O)[C@@H](O)c1ccc(Br)cc1` [SS-4660, O[C@H](C(=O)O)c1ccc(Br)cc1], the activity at 50 µM in series [1] amounted to 104%; in series [2] it was 102%. Also, the “Cell viability (fold DMSO) Mean” value in series [3] amounted to 1.10 fold DMSO.
Taken in the same sequence, the figures for `OCc1c[nH]c(-c2ccccc2)n1` [CB-0713, OCc1c[nH]c(n1)c2ccccc2] were 92%, 100% and 1.02 fold DMSO.
Taken in the same sequence, the figures for `Clc1ncc(Cn2ccnc2)s1` [Compound 8P-013, Clc1ncc(Cn2ccnc2)s1] were 104%, 118% and 0.94 fold DMSO.
On the same counts, the results for `COc1ccc(CO)c(OC)c1` [PS-4550, COc1ccc(CO)c(OC)c1] are 31%, 34% and 0.92 fold DMSO.
For `Cc1ccc(N2CCNC2=O)c(C)c1` [FA-0890, Cc1ccc(N2CCNC2=O)c(C)c1], the activity at 50 µM in series [1] stood at 99%; in series [2] it was 112%. In addition, in series [3], the “Cell viability (fold DMSO) Mean” value worked out at 1.08 fold DMSO.
Taken in the same sequence, the figures for `Brc1cnc(N2CCCC2)nc1` [PS-6092, Brc1cnc(nc1)N2CCCC2] were 105%, 103% and 1.11 fold DMSO.
On the same counts, the results for `O=C(O)c1ccc(N2CCCCC2)nn1` [PS-5724, OC(=O)c1ccc(nn1)N2CCCCC2] are 107%, 106% and 1.01 fold DMSO.
Taken in the same sequence, the figures for `CCN1C(=O)CCCc2ccccc21` [Compound 11N-585S, CCN1C(=O)CCCc2ccccc12] were 102%, 97% and 0.93 fold DMSO.
For `Clc1ccc2nccnc2c1` [PS-3410, Clc1ccc2nccnc2c1], the activity at 50 µM in series [1] was 95%; in series [2] it was 108%. The “Cell viability (fold DMSO) Mean” value in series [3] worked out at 1.20 fold DMSO.
Taken in the same sequence, the figures for `N[C@H]1CC[C@H](O)CC1` [PS-5466, N[C@@H]1CC[C@@H](O)CC1] were 96%, 115% and 0.99 fold DMSO.
Taken in the same sequence, the figures for `Cc1cc(O)cc(C)c1CO` [DK-0713, Cc1cc(O)cc(C)c1CO] were 96%, 93% and 1.04 fold DMSO.
In the case of `Cc1cnn2c(C3CC3)ccnc12` [Compound 7T-0305, Cc1cnn2c(ccnc12)C3CC3], the activity at 50 µM in series [1] was 108%; in series [2], 111%. Moreover, in series [3], the “Cell viability (fold DMSO) Mean” value came out at 1.06 fold DMSO.
On the same counts, the results for `Nc1cnc(Cl)cn1` [PS-5654, Nc1cnc(Cl)cn1] are 97%, 117% and 1.12 fold DMSO.
Taken in the same sequence, the figures for `Cc1ccnc2ccccc12` [PS-3771, Cc1ccnc2ccccc12] were 101%, 107% and 0.92 fold DMSO.
Taken in the same sequence, the figures for `COc1ncc(Cl)cc1C#N` [PS-5618, COc1ncc(Cl)cc1C#N] were 108%, 97% and 1.05 fold DMSO.
`OCC1(c2ccc(Cl)cc2)CC1` [RS-1014, OCC1(CC1)c2ccc(Cl)cc2]: the activity at 50 µM came out at 84% in series [1] and 93% in series [2]. The “Cell viability (fold DMSO) Mean” value in series [3] is recorded as 1.07 fold DMSO.
On the same counts, the results for `O=C1CCC(c2ccccc2)=NN1` [Compound 7L-571S, O=C1CCC(=NN1)c2ccccc2] are 107%, 124% and 0.99 fold DMSO.
On the same counts, the results for `COC(=O)c1cc(Br)no1` [PS-3994, COC(=O)c1onc(Br)c1] are 98%, 114% and 1.07 fold DMSO.
On the same counts, the results for `Nc1ccccc1N1CCCCC1` [PS-4134, Nc1ccccc1N2CCCCC2] are 111%, 107% and 1.12 fold DMSO.
For `Clc1ccc2nncn2c1` [GC-0731, Clc1ccc2nncn2c1], the figures for the activity at 50 µM in series [1] and in series [2] were 94% and 102%, respectively. In addition, the “Cell viability (fold DMSO) Mean” value in series [3] was determined as 1.03 fold DMSO.
Taken in the same sequence, the figures for `OCc1cc2c(cc1Br)OCO2` [Compound 10P-113, OCc1cc2OCOc2cc1Br] were 86%, 103% and 0.88 fold DMSO.
Consider `Cc1cc(C)n2ccnc2c1` [Compound 9X-0854, Cc1cc(C)n2ccnc2c1], for which the activity at 50 µM in series [1] came out at 94%; in series [2] it was 98%. In series [3], the “Cell viability (fold DMSO) Mean” value is 1.21 fold DMSO.
Taken in the same sequence, the figures for `COC(=O)[C@H]1CCC(=O)N1` [AS-7023, COC(=O)[C@H]1CCC(=O)N1] were 102%, 103% and 1.19 fold DMSO.
Taken in the same sequence, the figures for `CSc1ccccc1N1CCNCC1` [SS-4074, CSc1ccccc1N2CCNCC2] were 79%, 100% and 0.92 fold DMSO.
Consider `Nc1ccc(Cl)nn1` [PS-5236, Nc1ccc(Cl)nn1], for which the activity at 50 µM in series [1] and in series [2] was 108% each time. For the same compound, in series [3], the “Cell viability (fold DMSO) Mean” value is listed as 1.18 fold DMSO.
Turning to `CC(=O)c1cc(Br)cs1` [Compound 10X-0139, CC(=O)c1cc(Br)cs1], the activity at 50 µM worked out at 98% in series [1] and 108% in series [2]. Also, the “Cell viability (fold DMSO) Mean” value in series [3] is 1.20 fold DMSO.
On the same counts, the results for `CC1(C)CC(O)CC(C)(C)N1` [PS-5856, CC1(C)CC(O)CC(C)(C)N1] are 97%, 110% and 1.06 fold DMSO.
On the same counts, the results for `Clc1cccn2nnnc12` [PS-5645, Clc1cccn2nnnc12] are 101%, 101% and 0.92 fold DMSO.
Taken in the same sequence, the figures for `C[C@@H](O)c1cccc(C(F)(F)F)c1` [PS-6325, C[C@@H](O)c1cccc(c1)C(F)(F)F] were 103%, 108% and 1.07 fold DMSO.
With `Clc1ccc(N2CCNCC2)nc1` [AS-5607, Clc1ccc(nc1)N2CCNCC2], the activity at 50 µM in series [1] turned out to be 76%; in series [2], 81%. Further, the “Cell viability (fold DMSO) Mean” value in series [3] is 1.13 fold DMSO.
Taken in the same sequence, the figures for `Cc1ncccc1C(=O)O` [PS-5559, Cc1ncccc1C(=O)O] were 102%, 104% and 0.92 fold DMSO.
On the same counts, the results for `CC1CCN(Cc2ccc(Cl)nc2)CC1` [Compound 2X-0836, CC1CCN(Cc2ccc(Cl)nc2)CC1] are 89%, 104% and 1.16 fold DMSO.

The record behind these values is article PMC9933715 (Antimicrobial Agents and Chemotherapy, 2023).
